Reference: patent US8993756B2 (Merck Sharp & Dohme Corp., priority 2011, dated 2015)

Columns and labels:
[1] = target: JAK2 (Homo sapiens (Human), UniProt O60674); experiment: Jak Biochemical HTRF Assay (JAK2); conditions: recombinant GST-tagged catalytic domain, [ATP] 8.5 μM
[2] = target: JAK3 (Homo sapiens (Human), UniProt P52333); experiment: Jak Biochemical HTRF Assay (JAK3); conditions: recombinant GST-tagged catalytic domain, [ATP] 2.9 μM
Sequence of JAK3 (P52333 822-1111): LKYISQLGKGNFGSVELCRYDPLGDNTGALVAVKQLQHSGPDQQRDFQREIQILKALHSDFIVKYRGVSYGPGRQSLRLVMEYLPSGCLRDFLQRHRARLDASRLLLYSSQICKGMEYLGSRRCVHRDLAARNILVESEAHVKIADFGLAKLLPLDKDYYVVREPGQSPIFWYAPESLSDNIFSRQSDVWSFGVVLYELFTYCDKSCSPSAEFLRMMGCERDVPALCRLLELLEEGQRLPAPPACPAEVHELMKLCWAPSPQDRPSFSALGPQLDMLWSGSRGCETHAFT

Sequence of JAK2 (O60674 849-1124): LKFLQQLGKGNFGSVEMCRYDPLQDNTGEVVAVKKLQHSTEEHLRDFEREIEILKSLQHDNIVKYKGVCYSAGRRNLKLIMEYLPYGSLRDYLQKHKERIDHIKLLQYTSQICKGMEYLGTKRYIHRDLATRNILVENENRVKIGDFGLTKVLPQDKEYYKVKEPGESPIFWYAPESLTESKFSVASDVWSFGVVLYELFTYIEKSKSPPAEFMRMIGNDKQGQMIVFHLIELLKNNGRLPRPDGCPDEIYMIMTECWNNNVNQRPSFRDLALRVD

IC50 [1] [nM] | IC50 [2] [nM] | IC50 ([1]; given as range class) [nM] | IC50 ([2]; given as range class) [nM] | Compound
> 1500 | 0.068 |  |  | C=C(C)C(=O)Nc1cc(C#N)cc(-c2ncnc3[nH]cc(C(=O)OCC)c23)c1 [Example 4-24, ethyl 4-{3-cyano-5-[(2-methylacryloyl)amino]phenyl}-7H-pyrrolo[2,3-d]pyrimidine-5-carboxylate]
> 1500 | 0.11 |  |  | C=C(C)C(=O)Nc1cc(-c2ncnc3[nH]cc(C(=O)OCC)c23)ccc1CO [Example 4-25, ethyl 4-{4-(hydroxymethyl)-3-[(2-methylacryloyl)amino]phenyl}-7H-pyrrolo[2,3-d]pyrimidine-5-carboxylate]
> 1500 | 0.19 |  |  | C=C(C)C(=O)Nc1cc(C)cc(-c2ncnc3[nH]cc(C(=O)OCC)c23)c1 [Example 4-26, ethyl 4-{3-methyl-5-[(2-methylacryloyl)amino]phenyl}-7H-pyrrolo[2,3-d]pyrimidine-5-carboxylate]
> 1500 | 0.14 |  |  | C=C(C)C(=O)Nc1cc(-c2ncnc3[nH]cc(C(=O)OCC)c23)ccc1C#N [Example 4-27, ethyl 4-{4-cyano-3-[(2-methylacryloyl)amino]phenyl}-7H-pyrrolo[2,3-d]pyrimidine-5-carboxylate]
> 1500 | 1.5 |  |  | C=C(C)C(=O)Nc1cc(-c2ncnc3[nH]cc(C(=O)OCC)c23)ccc1C(=O)N(C)C [Example 4-28, ethyl 4-{4-(dimethylcarbamoyl)-3-[(2-methylacryloyl)amino]phenyl}-7H-pyrrolo[2,3-d]pyrimidine-5-carboxylate]
> 1500 | 0.087 |  |  | C=C(C)C(=O)Nc1cc(-c2ncnc3[nH]cc(C(=O)OCC)c23)ccc1S(C)(=O)=O [Example 4-29, ethyl 4-{3-[(2-methylacryloyl)amino]-4-(methylsulfonyl)phenyl}-7H-pyrrolo[2,3-d]pyrimidine-5-carboxylate]
> 1500 | 1.5 |  |  | C=C(C)C(=O)Nc1cc(-c2ncnc3[nH]cc(C(=O)OCC)c23)ccc1CN(C)C [Example 4-30, ethyl 4-{4-[(dimethylamino)methyl]-3-[(2-methylacryloyl)amino]phenyl}-7H-pyrrolo[2,3-d]pyrimidine-5-carboxylate]
> 1500 | 0.11 |  |  | C=C(C)C(=O)Nc1cc(-c2ncnc3[nH]cc(C(=O)OCC)c23)ccc1O [Example 4-31, ethyl 4-{4-hydroxy-3-[(2-methylacryloyl)amino]phenyl}-7H-pyrrolo[2,3-d]pyrimidine-5-carboxylate]
> 1500 | 0.68 |  |  | C=C(C)C(=O)Nc1cc(-c2ncnc3[nH]cc(C(=O)OCC)c23)cnc1OC [Example 4-32, ethyl 4-{6-methoxy-5-[(2-methylacryloyl)amino]pyridin-3-yl)-7H-pyrrolo[2,3-d]pyrimidine-5-carboxylate]
> 1500 | 0.47 |  |  | C=C(C)C(=O)Nc1cc(-c2ncnc3[nH]cc(C(=O)OCC)c23)c[nH]c1=O [Example 4-33, ethyl 4-{5-[(2-methylacryloyl)amino]-6-oxo-1,6-dihydropyridin-3-yl}-7H-pyrrolo[2,3-d]pyrimidine-5-carboxylate]
> 1500 | 1.1 |  |  | C=C(C)C(=O)Nc1cc(-c2ncnc3[nH]cc(C(=O)OCC)c23)cn(C)c1=O [Example 4-34, ethyl 4-{1-methyl-5-[(2-methylacryloyl)amino]-6-oxo-1,6-dihydropyridin-3-yl}-7H-pyrrolo[2,3-d]pyrimidine-5-carboxylate]
> 1500 | 0.049 |  |  | C=C(C)C(=O)Nc1cc(-c2ncnc3[nH]cc(C(=O)OCC)c23)ccn1 [Example 4-35, ethyl 4-{2-[(2-methylacryloyl)amino]pyridin-4-yl}-7H-pyrrolo[2,3-d]pyrimidine-5-carboxylate]
> 1500 | 0.024 |  |  | C=C(F)C(=O)Nc1cccc(-c2ncnc3[nH]cc(C(=O)OCC)c23)c1 [Example 5-1, Ethyl 4-{3-[(2-fluoroacryloyl)amino]phenyl}-7H-pyrrolo[2,3-d]pyrimidine-5-carboxylate]
> 1500 | 0.072 |  |  | CC#CC(=O)Nc1cccc(-c2ncnc3[nH]cc(C(=O)OCC)c23)c1 [Example 5-3, ethyl 4-[3-(but-2-ynoylamino)phenyl]-7H-pyrrolo[2,3-d]pyrimidine-5-carboxylate]
 |  | 10 to 500 | 10 to 500 | CCOC(=O)c1c[nH]c2ncnc(-c3cccc(NC(=O)CC#N)c3)c12 [Example 5-4, ethyl 4-{3-[(cyanoacetyl)amino]phenyl}-7H-pyrrolo[2,3-d]pyrimidine-5-carboxylate]
892 | 0.043 |  |  | C=C(Br)C(=O)Nc1cccc(-c2ncnc3[nH]cc(C(=O)OCC)c23)c1 [Example 5-5, ethyl 4-{3-[(2-bromoacryloyl)amino]phenyl}-7H-pyrrolo[2,3-d]pyrimidine-5-carboxylate]
> 1500 | 0.22 |  |  | C=C(Cl)C(=O)Nc1cccc(-c2ncnc3[nH]cc(C(=O)OCC)c23)c1 [Example 5-6, ethyl 4-{3-[(2-chloroacryloyl)amino]phenyl}-7H-pyrrolo[2,3-d]pyrimidine-5-carboxylate]

IC50 [1] [nM] | IC50 [2] [nM] | IC50 ([1]; given as range class) [nM] | IC50 ([2]; given as range class) [nM] | Compound
 |  | > 500 | 10 to 500 | CCOC(=O)c1c[nH]c2ncnc(-c3cccc(NC(=O)CCC(C)=O)c3)c12 [Example 5-7, ethyl 4-{3-[(4-oxopentanoyl)amino]phenyl}-7H-pyrrolo[2,3-d]pyrimidine-5-carboxylate]
> 1500 | 2.1 |  |  | CCOC(=O)c1c[nH]c2ncnc(-c3cccc(NC(=O)/C=C/COC)c3)c12 [Example 5-8, ethyl 4-(3-{[(2E)-4-methoxybut-2-enoyl]amino}phenyl)-7H-pyrrolo[2,3-d]pyrimidine-5-carboxylate]
> 1500 | 8.3 |  |  | C/C=C\C(=O)Nc1cccc(-c2ncnc3[nH]cc(C(=O)OCC)c23)c1 [Example 5-9, ethyl 4-{3-[(2Z)-but-2-enoylamino]phenyl}-7H-pyrrolo[2,3-d]pyrimidine-5-carboxylate]
> 1500 | 0.013 |  |  | C=C(F)C(=O)Nc1cc(-c2ncnc3[nH]cc(C(=O)OCC)c23)ccc1F [Example 5-10, ethyl 4-{4-fluoro-3-[(2-fluoroacryloyl)amino]phenyl}-7H-pyrrolo[2,3-d]pyrimidine-5-carboxylate]
 |  | > 500 | 10 to 500 | CCOC(=O)c1c[nH]c2ncnc(-c3cccc(NC(=O)C4=COCCO4)c3)c12 [Example 5-13, ethyl 4-{3-[(5,6-dihydro-1,4-dioxin-2-ylcarbonyl)amino]phenyl}-7H-pyrrolo[2,3-d]pyrimidine-5-carboxylate]
> 1500 | 5.3 |  |  | CCOC(=O)c1c[nH]c2ncnc(-c3cccc(NC(=O)/C=C/C(C)=O)c3)c12 [Example 5-14, ethyl 4-(3-{[(2E)-4-oxopent-2-enoyl]amino}phenyl)-7H-pyrrolo[2,3-d]pyrimidine-5-carboxylate]
 |  | > 500 | 10 to 500 | CCOC(=O)c1c[nH]c2ncnc(-c3cccc(NC(=O)/C=C/c4c(C)nn(C)c4C)c3)c12 [Example 5-15, ethyl 4-(3-{[(2E)-3-(1,3,5-trimethyl-1H-pyrazol-4-yl)prop-2-enoyl]amino}phenyl)-7H-pyrrolo[2,3-d]pyrimidine-5-carboxylate]
452 | 6.6 |  |  | CCOC(=O)c1c[nH]c2ncnc(-c3cccc(NC(=O)/C=C/c4ccccn4)c3)c12 [Example 5-16, ethyl 4-(3-{[(2E)-3-pyridin-2-ylprop-2-enoyl]amino}phenyl)-7H-pyrrolo[2,3-d]pyrimidine-5-carboxylate]
> 1500 | 2 |  |  | CCOC(=O)c1c[nH]c2ncnc(-c3cccc(NC(=O)/C=C/c4ccncc4)c3)c12 [Example 5-17, ethyl 4-(3-{[(2E)-3-pyridin-4-ylprop-2-enoyl]amino}phenyl)-7H-pyrrolo[2,3-d]pyrimidine-5-carboxylate]
 |  | > 500 | 10 to 500 | CCOC(=O)c1c[nH]c2ncnc(-c3cccc(NC(=O)c4c[nH]c(=O)[nH]c4=O)c3)c12 [Example 5-18, ethyl 4-(3-{[(2,4-dioxo-1,2,3,4-tetrahydropyrimidin-5-yl)carbonyl]amino}phenyl)-7H-pyrrolo[2,3-d]pyrimidine-5-carboxylate]
> 1500 | 2.4 |  |  | CCOC(=O)c1c[nH]c2ncnc(-c3cccc(NC(=O)/C=C/c4c[nH]c5ccccc45)c3)c12 [Example 5-19, ethyl 4-(3-{[(2E)-3-(1H-indo1-3-yl)prop-2-enoyl]amino}phenyl)-7H-pyrrolo[2,3-d]pyrimidine-5-carboxylate]
 |  | > 500 | 10 to 500 | CCOC(=O)c1c[nH]c2ncnc(-c3cccc(NC(=O)c4c[nH]c(=O)[nH]4)c3)c12 [Example 5-20, ethyl 4-(3-{[(2-oxo-2,3-dihydro-1H-imidazol-4-yl)carbonyl]amino}phenyl)-7H-pyrrolo[2,3-d]pyrimidine-5-carboxylate]
 |  | > 500 | 10 to 500 | CCOC(=O)c1c[nH]c2ncnc(-c3cccc(NC(=O)/C=C/c4cccs4)c3)c12 [Example 5-21, ethyl 4-(3-{[(2E)-3-thiophen-2-ylprop-2-enoyl]amino}phenyl)-7H-pyrrolo[2,3-d]pyrimidine-5-carboxylate]
 |  | > 500 | 10 to 500 | CCOC(=O)c1c[nH]c2ncnc(-c3cccc(NC(=O)/C=C/c4ccoc4)c3)c12 [Example 5-22, ethyl 4-(3-{[(2E)-3-furan-3-ylprop-2-enoyl]amino}phenyl)-7H-pyrrolo[2,3-d]pyrimidine-5-carboxylate]
 |  | > 500 | 10 to 500 | CCOC(=O)c1c[nH]c2ncnc(-c3cccc(NC(=O)/C=C\c4ccccc4OC)c3)c12 [Example 5-23, ethyl 4-(3-{[(2Z)-3-(2-methoxyphenyl)prop-2-enoyl]amino}phenyl)-7H-pyrrolo[2,3-d]pyrimidine-5-carboxylate]
 |  | > 500 | 10 to 500 | CCOC(=O)c1c[nH]c2ncnc(-c3cccc(NC(=O)/C=C/c4cccc(OC)c4)c3)c12 [Example 5-24, ethyl 4-(3-{[(2E)-3-(3-methoxyphenyl)prop-2-enoyl]amino}phenyl)-7H-pyrrolo[2,3-d]pyrimidine-5-carboxylate]
